{"source": "paper PMC6340882", "about": "“Targeting protein kinase CK2 and CDK4/6 pathways with a multi-kinase inhibitor ON108110 suppresses pro-survival signaling and growth in mantle cell lymphoma and T-acute lymphoblastic leukemia” (Oncotarget, 2018)", "key": {"[1]": {"tested_on": "Granta-519 cells", "test": "Caspase Glo 3/7 caspase activation assay", "assay_type": "cell-based, human", "settings": "increasing concentrations, 24 hours", "procedure": "(§1) Figure 5 Modulation of cell cycle expression and induction of apoptosis in ON 108110-treated MCL and T-ALL cell lines (A) CEM and Granta-519 cells were treated with either DMSO or increasing concentrations of ON108110 (0.5-2.0μM) for 24 hours. Cell cycle analysis was performed using propidium iodide staining. (B) CEM, HBL-2, RS4-11 and Granta-519 cells were treated with either DMSO (vehicle) or increasing concentrations of ON108110 (0.5-2.0 μM) for 24 hours and stained with Annexin V/DAPI (C) Graphical representation of apoptosis induced as shown in B. (D) Granta-519 cells were treated with increasing concentrations of ON108110 for 24 hours. Caspase activation and viability were measured using the Caspase Glo 3/7 and Cell Titer Blue assay kits, respectively. TEXT PRINTED IN THE PICTURE: (B) DMSO: 1.31; 2.34; 94.5; 1.65 | (B) ON108110: 2.21 (0.5μM); 4.32 (0.5μM); 91.1 (0.5μM); 2.37 (0.5μM); 1.64 (1.0μM); 15 (1.0μM); 80.8 (1.0μM); 2.62 (1.0μM); 4.83 (2.0μM); 60.7 (2.0μM); 28.9 (2.0μM); 5.58 (2.0μM) DOUBTS OF THE COPYIST ABOUT THIS PICTURE: Panel B: the quadrant numbers in the Annexin V/DAPI plots have no printed measure or unit. […]\nCaspase-3/7 activation was measured using the Caspase-Glo® 3/7 kit as recommended by the manufacturer (Promega)."}, "[2]": {"test": "Growth inhibition (GI50), Cell Titer Blue", "assay_type": "cell-based, human", "settings": "normal human peripheral blood mononuclear cells (hPBMC); hPBMC, Normal Human Peripharal Mononuclear Cells; 96 hrs post-treatment", "procedure": "(§2) Cell lines were cultured in RPMI-1640 medium (Thermo Scientific) supplemented with 10% heat inactivated FBS and penicillin-streptomycin at 37°C under humidified conditions and 5% CO2. All cell lines tested negative for mycoplasma. […] Compounds were added 24 hrs post-plating at the indicated concentrations. Cell counts were determined from duplicate wells 96 hrs post-treatment using the Cell Titer Blue assay in conjunction with the GloMax plate reader (Promega).\n(§3) Peripheral blood samples were obtained from patients at the Icahn School of Medicine at Mount Sinai with informed and written consent for tissue banking following a protocol approved by the Institutional Review Board (MSSM IRB#11-1669) and in accordance with the Declaration of Helsinki. Peripheral blood mononuclear cells were pelleted by low-speed centrifugation, resuspended in media composed of 90% fetal bovine serum (FBS) and 10% DMSO (Sigma), frozen slowly in the vapor phase of liquid nitrogen in multiple cryovials, and stored in liquid nitrogen."}, "[3]": {"tested_on": "hPBMC", "test": "Growth inhibition (GI50), Cell Titer Blue", "assay_type": "cell-based, human", "settings": "normal human cells (Table 1)", "procedure": "as §2, §3"}, "[4]": {"tested_on": "CEM, HBL-2, RS4-11 and Granta-519 cells", "test": "Apoptosis, Annexin V/DAPI staining", "assay_type": "cell-based, human", "settings": "0.5-2.0 μM, 24 hours post-treatment", "procedure": "as §1, with “respectively.” for “respectively. TEXT PRINTED IN THE PICTURE: (B) DMSO: 1.31; 2.34; 94.5; 1.65 | (B) ON108110: 2.21 (0.5μM); 4.32 (0.5μM); 91.1 (0.5μM); 2.37 (0.5μM); 1.64 (1.0μM); 15 (1.0μM); 80.8 (1.0μM); 2.62 (1.0μM); 4.83 (2.0μM); 60.7 (2.0μM); 28.9 (2.0μM); 5.58 (2.0μM) DOUBTS OF THE COPYIST ABOUT THIS PICTURE: Panel B: the quadrant numbers in the Annexin V/DAPI plots have no printed measure or unit.”\nTo determine cell cycle distribution, 70% ethanol fixed cells were washed with phosphate buffered saline (PBS), resuspended in PBS and incubated with RNase and propidium iodide at 37°C for 20 min. DNA content was analyzed on a FACS Calibur (BD Immunocytometry Systems) and the data analyzed using Flowjo software (Treestar). Annexin V staining was measured using the FITC Annexin V Apoptosis Detection Kit I (BD Biosciences) according to the instructions of the manufacturer except that DAPI was substituted at a concentration of […] to measure DNA content."}, "[5]": {"tested_on": "AsPc1", "test": "Growth inhibition (GI50), Cell Titer Blue", "assay_type": "cell-based", "settings": "Homo sapiens; AsPc1, Pancreatic Cancer; 96 hrs post-treatment", "procedure": "as §2"}, "[6]": {"tested_on": "22Rv1", "test": "Growth inhibition (GI50), Cell Titer Blue", "assay_type": "cell-based", "settings": "Homo sapiens; 22Rv1, Prostate Cancer; 96 hrs post-treatment", "procedure": "as §2"}, "[7]": {"tested_on": "BT-20", "test": "Growth inhibition (GI50), Cell Titer Blue", "assay_type": "cell-based", "settings": "Homo sapiens; BT-20, Breast Cancer; 96 hrs post-treatment", "procedure": "as §2"}, "[8]": {"tested_on": "HEL", "test": "Growth inhibition (GI50), Cell Titer Blue", "assay_type": "cell-based", "settings": "Homo sapiens, Erythroleukemia, 96 hrs post-treatment", "procedure": "as §2"}, "[9]": {"tested_on": "LnCap", "test": "Growth inhibition (GI50), Cell Titer Blue", "assay_type": "cell-based", "settings": "Homo sapiens, Prostate Cancer, 96 hrs post-treatment", "procedure": "as §2"}, "[10]": {"tested_on": "CEM", "test": "Growth inhibition (GI50), Cell Titer Blue", "assay_type": "cell-based", "settings": "Homo sapiens, CCRF-CEM, Acute Lymphoblastic Leukemia, 96 hrs post-treatment", "procedure": "as §2"}, "[11]": {"tested_on": "K562", "test": "Growth inhibition (GI50), Cell Titer Blue", "assay_type": "cell-based", "settings": "Homo sapiens; K562, Chronic Myeloid Leukemia; 96 hrs post-treatment", "procedure": "as §2"}, "[12]": {"tested_on": "GRANTA-519", "test": "Growth inhibition (GI50), Cell Titer Blue", "assay_type": "cell-based", "settings": "Homo sapiens; GRANTA-519, Mantle Cell Lymphoma; 96 hrs post-treatment", "procedure": "as §2"}, "[13]": {"tested_on": "MiaPaca-2", "test": "Growth inhibition (GI50), Cell Titer Blue", "assay_type": "cell-based", "settings": "Homo sapiens, MIA PaCa-2; MiaPaca-2, Pancreatic Cancer; 96 hrs post-treatment", "procedure": "as §2"}, "[14]": {"tested_on": "MCF-7", "test": "Growth inhibition (GI50), Cell Titer Blue", "assay_type": "cell-based", "settings": "Homo sapiens, MCF7; MCF-7, Breast Cancer; 96 hrs post-treatment", "procedure": "as §2"}, "[15]": {"tested_on": "RS-4-11", "test": "Growth inhibition (GI50), Cell Titer Blue", "assay_type": "cell-based", "settings": "Homo sapiens, RS4-11; RS-4-11, Acute Lymphoblastic Leukemia; 96 hrs post-treatment", "procedure": "as §2"}, "[16]": {"tested_on": "JVM2", "test": "Growth inhibition (GI50), Cell Titer Blue", "assay_type": "cell-based", "settings": "Homo sapiens, JVM-2; JVM2, Mantle Cell Lymphoma; 96 hrs post-treatment", "procedure": "as §2"}, "[17]": {"tested_on": "Z138C", "test": "Growth inhibition (GI50), Cell Titer Blue", "assay_type": "cell-based", "settings": "Homo sapiens, Mantle Cell Lymphoma, 96 hrs post-treatment", "procedure": "as §2"}, "[18]": {"tested_on": "HBL2", "test": "Growth inhibition (GI50), Cell Titer Blue", "assay_type": "cell-based", "settings": "Homo sapiens; HBL2, Mantle Cell Lymphoma; 96 hrs post-treatment", "procedure": "as §2"}, "[19]": {"tested_on": "MOLT-4", "test": "Growth inhibition (GI50), Cell Titer Blue", "assay_type": "cell-based", "settings": "Homo sapiens; MOLT-4, Acute Lymphoblastic Leukemia; 96 hrs post-treatment", "procedure": "as §2"}}}
{"smiles": "CC(=O)Oc1ccc(/C=C2\\Sc3ccc(F)cc3NC2=O)cc1[N+](=O)[O-]", "note": "[ON108110]", "values": [{"measurement": "Caspase activity and PARP cleavage", "setting": "[1]", "value": "increased as a function of cell death"}, {"measurement": "GI50 at 96 h", "setting": "[2]", "value": "> 5000", "unit": "nM"}, {"measurement": "cytotoxicity towards normal human cells", "setting": "[3]", "value": "little or no cytotoxicity"}, {"measurement": "frequency of apoptotic cells (Annexin V)", "setting": "[4]", "value": "concentration-dependent increase in the frequency of apoptotic cells"}, {"measurement": "GI50", "setting": "[5]", "value": 2800, "unit": "nM"}, {"measurement": "GI50", "setting": "[6]", "value": "> 5000", "unit": "nM"}, {"measurement": "GI50", "setting": "[7]", "value": 2500, "unit": "nM"}, {"measurement": "GI50", "setting": "[8]", "value": 900, "unit": "nM"}, {"measurement": "GI50", "setting": "[9]", "value": "> 5000", "unit": "nM"}, {"measurement": "GI50", "setting": "[10]", "value": 180, "unit": "nM"}, {"measurement": "GI50", "setting": "[11]", "value": 2200, "unit": "nM"}, {"measurement": "GI50", "setting": "[12]", "value": 150, "unit": "nM"}, {"measurement": "GI50", "setting": "[13]", "value": 2600, "unit": "nM"}, {"measurement": "GI50", "setting": "[14]", "value": 800, "unit": "nM"}, {"measurement": "GI50", "setting": "[15]", "value": 240, "unit": "nM"}, {"measurement": "GI50", "setting": "[16]", "value": 300, "unit": "nM"}, {"measurement": "GI50", "setting": "[17]", "value": 600, "unit": "nM"}, {"measurement": "GI50", "setting": "[18]", "value": 250, "unit": "nM"}, {"measurement": "GI50", "setting": "[19]", "value": 500, "unit": "nM"}]}
